Test results reported in patent US11622951B2, “Alpha-aminoadipate for treatment of vision loss and restoring sight” (The Schepens Eye Research Institute, Inc., priority 2013, dated 2023).
Entries after “also recorded” stand apart in the source; their conditions may differ.

Tests used:
retinal neurons = assay: Retinal neuron morphology and lamina structure after injection (electron microscopy, Nissl, recoverin, syntaxin); assay type: in vivo, mouse
Description: (§1) Mice were anesthetized by intraperitoneal injection of ketamine (62.5 mg/kg) and xylazine (12.5 mg/kg) and transcardially perfused with phosphate buffered saline (PBS) followed by 4% paraformaldehyde in PBS. Retinal flat-mounts or transverse retinal sections (14 μm) were preblocked with PBS containing 3% bovine serum albumin (Sigma-Aldrich, St. Louis, Mo.) and 0.3% Triton X (Sigma-Aldrich) and incubated, first, with primary antibody overnight, and then with secondary antibody for 1 hour at room temperature. The following antibodies were used: Cy3-conjugated monoclonal antibody against GFAP (1:1000; Sigma), Brn-3b (1:200; Santa Cruz Biotechnology; Santa Cruz, Calif.), mouse anti-rhodopsin (1:4000; Rho1D4), chick anti-cone-opsin (1:300), and Cy-2, Cy-3 or Cy-5-conjugated secondary antibody (Jackson ImmunoResearch; West Grove, Pa.). Assessment of morphological integration were quantified by counting EGFP+ cells located outside of transplanted cell clusters in retinal whole-mounts. Statistical significance was determined by either the two tailed student t test or ANOVA.
Mice were sacrificed 3 days after receiving the injection of α-AA (1 μg/μl) or saline as controls by injection of overdose of ketamine/xylazine followed by cervical dislocation, and the eyeballs were dissected, fixed with Karnovsky's fixative (pH 7.4) for 24 h. The quadrants of the eyes that received subretinal injection were dissected and embedded in Epon-Araldite. Semi-thin sections (1-2 μm) were stained with phenylenediamine phase staining. The sections were examined and photographed with a transmission electron microscope (EM410; Philips; Eindhoven, The Netherlands). Ten randomly selected retinal sections of each eye were photographed at 1900× magnification, and all Müller glial nuclei in the photomicrograph were counted.
Retinal sections were examined under electron microscopy, in which Müller glia were identified by their characteristic angular nuclei, dense chromatin and dark perinuclear cytoplasm (FIG. 1e-h). […]

[1] = system: transplanted retinal progenitors; assay: Differentiation of transplanted retinal progenitors in pretreated host retina (immunohistochemistry); assay type: in vivo, mouse; settings: pretreated wild-type hosts, 21 days post transplantation
Description: as §1
At 2 days before transplantation, 2 μl of a solution containing either α-AA (1 μg/μl) or saline (control) was injected unilaterally into the subretinal space of recipient wild-type or Gnat1^−/− mice (>2 months old). […]

[2] = system: cone photoreceptor function; assay: Flicker ERG under cone-isolation conditions in Rho-/- mice; assay type: in vivo, mouse; settings: Rho-/- mice injected subretinally at 6 weeks old, 4 weeks later, vs saline contralateral eye
Description: Mice carrying rhodopsin deficiency (Rho^−/−) were used to determine if injection of alpha-aminoadipate (αAA) is sufficient to induce neuroregeneration from endogenous retinal progenitors, e.g., Muller cells, leading to preservation and restoration of photoreceptor cell function. Light-evoked photoreceptor responses and retinal functions in Rho^−/− mice that received αAA or saline injection were assessed using ERGS and whole cell-attached patch clamp.
To determine if αAA induces functional neuroregeneration in Rho^−/− mice, αAA was injected subretinally into the left eyes of 6 week-old Rho^−/− mice, while their contralateral eyes were injected with saline and served as controls. After a 4 week survival period to allow regeneration of new photoreceptors, mouse ERG was measured in both eyes and then performed immunohistochemistry to identify photoreceptor cells. Rho^−/− mice lack the rod photoreceptor cell component or ERG a-wave. As cones consist of ˜3% of photoreceptors in mice, it is difficult to assess cone action a-wave; therefore, flicker ERG photometry under cone-isolation conditions was used to measure cone functions. […]

Muller cells [3] = assay: Müller cell proliferation and trans-differentiation in diseased eyes of Rho-/- mice; assay type: in vivo, mouse; settings: administered directly to the diseased eyes of Rho-/- mice
Excerpt: Photoreceptor cell death can be measured or assessed by electroretinography, and a reduction or absence of a-wave and/or b-waves. […] Furthermore, proliferating Muller cells were also shown to be capable of trans-differentiating into retinal progenitor cells (expressing retinal progenitor markers).

Muller cells [4] = settings: wild-type mice with normal retinas, Takeda et al. 2009; cited from earlier work

## NC(CCCC(=O)O)C(=O)O (stereo not drawn) [α-AA, alpha-aminoadipate]
Retinal neurons; 3 days after subretinal injection
  retinal neuron morphology (electron microscopy): No abnormality in retinal neuron morphology
Retinal neurons; day 3 after injection, vs saline-injected controls
  morphology and lamina structure (recoverin, syntaxin immunolabeling): No apparent changes; also recorded: No significant difference
Retinal neurons; mouse, in vivo
  neuronal toxicity: No neuronal toxicity
[1]
  EGFP+ cells integrated into the ONL cone-opsin positive: 12%
  EGFP+ cells integrated into the ONL positive for rhodopsin: Approximately 80%
[2]
  ERG b-wave (flicker ERG): sizable b-wave
Muller cells [3]
  proliferation of Muller cells: resulted in proliferation of Muller cells
Muller cells [4]
  Muller cell proliferation in the retina: can stimulate Muller cell proliferation
